# In patent publication US20140155445A1, “Compounds and Methods for Treating Cancer and Diseases of the Central Nervous System” (Osta Biotechnologies Inc., priority 2007, published 2014):
# Experiments:
# SKMEL-V+ cells = assay: Cell proliferation / survival, MTT assay, SKMEL-V+ cells; type: cell-based, human; settings: 96 hours; for % cell survival: 6.25 μM to 100 μM
# Procedure: Exponentially growing SKMEL-V+ cells (1×10^3) were seeded in 96-well plates in complete medium. […] Cell survival was evaluated 96 hours later using the MTT metabolic assay (Benlimame N, He Q, Jie S, et al. FAK signaling is critical for ErbB-2/ErbB-3 receptor cooperation for oncogenic transformation and invasion. J Cell Biol 2005; 171: 505-16).
# APPswe/PS1dE9 mice = assay: Behavioral studies (maze, fear conditioning) in APPswe/PS1dE9 mice; type: in vivo, mouse
# Procedure: The experiments were performed at Pennington Biomedical Research Centre (PBRC) of Lousiana State University, Baton Rouge, Lousiana and were approved by the Institutional Animal Care and Use Committee (IACUC) of PBRC.
# The APPswe/PS1dE9 mice were generated against a C57/BL6J background by breeding either +/+ males or females with −/− females or males, respectively.
# Memantine (10 mg/kg) and both doses of QC-199 (15 mg/kg & 30 mg/kg) were prepared in batches and frozen for later use. Each compound was weighed and dissolved in injectable sterile saline solution. Memantine was prepared at a concentration of 1 mg/ml, the 15 mg/kg dose of QC-199 at a volume of 15 mg/10 ml, and the 30 mg/kg dose of QC-199 at a volume of 30 mg/10 ml. The compounds were prepared in this volume so that the mice could easily be injected based on their body weight, e.g., a 35 gram mouse was injected with 0.35 ml dosing solution.
# Memantine and QC-199 dosing solutions were administered to mice via i.p. injections. The mice were weighed 3 times/week and were injected with a volume that matched their body weight. The mice were injected daily and the injection located was alternated each day to avoid potential complications from injection in the same location on a daily basis.
# After reaching their respective treatment duration, the wild type and APP/PS1 double transgenic mice were run through the STM and fear conditioning. The STM consisted of one day of straight run training (running down an alley from the start box to the goal box). This phase was implemented to establish the contingency that moving forward would provide escape into the dark and dry goal box. The mice were required to reach a criterion of completing the straight run in 15 sec or less on 7 out of 9 trials over a maximum of 15 trials. […] The following day each mouse was administered 15 trials in the STM with approximately 7-10 min between each trial where they were placed into a holding cage with a towel. The latency to reach the goal box and the number of errors committed were the dependent measures of learning. However, in our experience, errors committed is much more indicative of learning and is reported for this project. Pictures of the straight run (A) and maze (B) are shown in FIG. 42, along with a schematic (C) of the maze indicating the correct path. The data from the maze was collapsed into blocks of 5 trials for data summary and presentation.
# Med Associates Inc.'s MED-VFC-NIR-M NIR Video Fear Conditioning System for Mouse, Pavlovian fear conditioning was conducted after the STM. On Day 1 the mice were placed in Context 1 and given 5 tone+shock pairings. On day 2 the mice were placed back into Context 1 and their freezing response to being placed back into the original context where fear conditioning occurred was measured. Freezing is operationally defined as the cessation of all movement except that required for respiration. Freezing was measured over 10 minutes, and data were summarized in 1-min intervals. On day 3 the mice were placed into a novel context (Context 2) for 10 min. […] For the final 5 min, the tone paired with shock during fear conditioning was presented. Again, the data was summarized in 1-min intervals.
# Maze data was analyzed by two-way ANOVAs to determine treatment group effects for both errors and run time after the data was collapsed into three 5 trial blocks. Planned comparisons of transgenic mice treated with saline with each of the drug treatments, memantine or QC-199 at 15 mg/kg/day and 30 mg/kg/day were conducted to evaluate group differences in the maze at each trial block and both tone and contextual fear conditioning tests. The critical a level was set at 0.05 for all statistical tests. The values in FIGS. 46A-46C represent the means±S.E.M. The data was analyzed using the SPSS statistical program version 11.0. […]
# [1] = tested on: human metastatic prostate cancer PC-3M cells; assay: Orthotopic PC-3M prostate cancer model in SCID mice; type: in vivo
# From the text: PC-3 & PC-3M (human prostate carcinoma). The PC-3 human prostate cancer cell line was originally obtained from the American Type Culture Collection (Rockville, Md.). The PC-3M cell line was kindly provided by Dr. Issac (MD Anderson Cancer Center). This cell variant was derived from a liver metastasis produced by the parental PC-3 cells growing in the spleen of a nude mouse [Pettaway C A, Pathak S, Greene G, et al. Selection of highly metastatic variants of different human prostate carcinomas utilizing orthotopic implantation in nude mice.
# Male SCID mice were housed in laminar flow under specific pathogen-free conditions and used at 8-9 weeks of age. Animals were maintained in the LDI facilities approved by the Laboratory Animal Care in accordance with current Canadian regulations and standards for the use of animals for research.
# Mice were anesthesized with isofluorane given by inhalation and placed in a supine position. […] A low midline incision was made and the prostate was exposed. Fifty microliters of HBSS containing 1×10^6 cells was injected into a lateral lobe of the prostate. The wound was closed with surgical metal clips in two layers, the muscle layer first and then the skin layer using stainless steel clips (autoclips: 9 mm; Clay Adams Inc., Parsippany, N.J.). […] Control groups received the vehicle alone. Taxol™ was given either ip or iv as indicated.
# Primary tumors in the prostate were excised, measured, and weighed. When applicable, immunohistochemistry and H&E staining were conducted on one part of the tumor, fixed in formalin and embedded in paraffin or OCT compound (Miles Inc., Elkhart, Ind.); the later was rapidly frozen in liquid nitrogen, and stored at −70° C. Macroscopically enlarged regional lymph nodes were harvested and the presence of metastatic disease was confirmed by histology.
# The in vivo data was analyzed using the Mann-Whitney U test.
# [2] = tested on: PC-3 (human prostate carcinoma); assay: Prostate carcinoma model PC-3 in SCID mice
# From the text: • Species and strain: Mouse (Mus musculus); female SCID (MDA231 and OVCAR3), male SCID (PC-3, HCT116); male CD57 B16 mice (BL16-BL6) • Age: 6-8 weeks old. • Supplier: Charles River Laboratories, Inc., St-Constant, Quebec, Canada. • Acclimation: Mice were acclimated to laboratory conditions for approximately 1 week prior to tumor cell inoculation. • Identification: Mice were identified by ear punch combination. • Housing: Mice were housed in groups of 3-5 in a designated animal facility with a temperature of 22° C., a relative humidity of 40-50%, and a 12 hr light/dark cycle.
# PC-3 (human prostate carcinoma). These cells were originally received from the ATCC. Early passage cells (tested free of mycoplasma) were grown to 60% confluence in DMEM medium supplemented with 10% fetal bovine serum, and antibiotics. Cell harvesting was performed using trypsin-EDTA solution.
# Exponentially growing cells were harvested using trypsin-EDTA solution. […] Cell viability was confirmed by trypan blue staining. […] One to 2 millions cells suspended in 0.1 mL phosphate buffer solution was implanted into the mammary fat pad (MCF7) or subcutaneously into the axillary region of the right flank of recipient SCID mice. All animals were inoculated at the same site.
# Mice were subjected to general examination on daily basis. […] Control groups received the vehicle alone. Chemotherapy drugs were also given by intraperitoneal route according to the schedule described below.
# Primary tumor growth was monitored every second to fourth day using calipers. Relative tumor volume (cm^3) was determined by the formula:
# Body weights were monitored every third to fifth day. Animals experiencing signs of discomfort were sacrificed immediately (in some cases they were replaced by spared mice). […] Mice were sacrificed by cervical dislocation and immediately subjected to full autopsy.
# [3] = QC-56 30 mg/kg intraperitoneally daily for 12 days, Taxol 10 mg/kg i.p. 3 cycles
smiles,measurement,setting,value
"OC(Cn1ccnc1)c1ccc(-c2ccc(Br)cc2)cc1 (racemic) [QC-304, (±)-1-(4′-bromo-biphenyl-4-yl)-2-imidazol-1-yl-ethanol]",% cell survival,SKMEL-V+ cells,no significant change in cell survival
same,potency in comparison with the other HO-1 inhibitors,SKMEL-V+ cells; 6.25 μM,most potent
"CC12CC3CC(C)(C1)CC(N)(C3)C2 [Memantine, reference compound]",effect on maze errors and contextual fear conditioning (summary),"APPswe/PS1dE9 mice; Memantine, QC-199 15 mg/kg and 30 mg/kg, dtg mice",positive effect
same,maze errors vs saline-treated APP/PS1 mice,"APPswe/PS1dE9 mice; QC-199 15 mg/kg/day i.p., Memantine 10 mg/kg i.p., improved at Trial Blocks 2 and 3, not 1",improved maze
same,contextual fear conditioning (freezing) vs saline-treated APP/PS1 mice,"APPswe/PS1dE9 mice; QC-199 15 and 30 mg/kg/day, Memantine 10 mg/kg, Time Blocks 1-4",no significant differences
same,tone fear conditioning (freezing) vs saline-treated APP/PS1 mice,"APPswe/PS1dE9 mice; QC-199 15 and 30 mg/kg/day, Memantine 10 mg/kg, Trial Blocks 3 and 4",no significant differences
"Cl.FC(F)(F)c1ccc(CCCCn2ccnc2)cc1 [QC-234, 1-[4-(4-(Trifluoromethyl)phenyl)butyl]-1H-imidazole hydrochloride]",% cell survival,SKMEL-V+ cells,Dose dependent decrease in cell survival
"CC(=O)O[C@H]1C(=O)[C@@]2(C)[C@H]([C@H](OC(=O)c3ccccc3)[C@]3(O)C[C@H](OC(=O)[C@H](O)[C@@H](NC(=O)c4ccccc4)c4ccccc4)C(C)=C1C3(C)C)[C@]1(OC(C)=O)CO[C@@H]1C[C@@H]2O [Taxol™, paclitaxel, reference compound]",inhibition of tumor growth,[1]; [3],64%
same,reduction in microscopic lymph node metastases,[1]; [3],82%
same,reduction in microscopic lymph node metastases,"[1]; QC-56 40 mg/kg daily for 24 days, Taxol 10 mg/kg, 4 cycles",47%
same,inhibition of tumor growth compared to untreated mice,"[1]; QC-56 40 mg/kg daily for 24 days, Taxol 10 mg/kg, 4 cycles, 3 administrations per cycle",45%
same,Body Weights (g) d8 (mean + SE),"[2]; PC-3 mice, treatment day 8",22.40 ± 7.92 g
same,Body Weights (g) d42 (mean + SE),"[2]; PC-3 mice, treatment day 42",17.70 ± 6.25 g
same,inhibition of tumor growth compared to vehicle alone,"[2]; QC-56 60 mg/kg/ip, Taxol 10 mg/kg",~28%
